{"source": "patent US6441020B1", "about": "“Protein kinase C modulators. W” (priority 1995, dated 2002)", "key": {"Raji cells": {"system": "Raji cells", "conditions": "Irie and Koshimizu 1988; cited from earlier work"}, "[1]": {"system": "protein kinase C preparation", "conditions": "Irie and Koshimizu 1988; cited from earlier work"}, "[2]": {"system": "phorbol 12-myristate 13-acetate induced ear inflammation/erythema", "test": "Mouse ear anti-inflammatory test against phorbol 12-myristate 13-acetate", "type": "in vivo, mice", "protocol": "Method: A stock solution of 300 pmoles of the standard inflammatory compound phorbol 12-myristate 13-acetate per 5 μL acetone was prepared. This solution was used to prepare ten-fold dilutions of N^1,14-O-digeranyl-(9S,12S)-indolactam V, prepared as in Example 8, covering concentrations of the latter ranging from 3,500 to 350,000 pmoles per 5 μL."}, "protein kinase C γ": {"target": "T1, protein kinase C γ (Bos taurus, UniProt P05128)", "T1 construct": "Successful full-length expression of each isotype was confirmed by immunoblotting; made in house; host or cells: Sf9 or Sf158 insect cells (baculovirus)", "test": "[3H]PDBu receptor binding assay, protein kinase C γ", "excerpt": "(§1) Recombinant protein kinase Cα, β1, γ, ε, η, θ and μ were obtained as crude cell preparations as follows. The protein kinase C isotypes were expressed in Sf9 or Sf158 insect cells using recombinant baculoviruses as described (Patel and Stabel, 1989; Stabel, Schaap and Parker, 1991; Johannes et al., 1994). In the case of the θ isotype, human protein kinase Cθ was cloned in the plasmid vector pFlag-Mac and the protein expressed in E. coli strain DH5. Successful full-length expression of each isotype was confirmed by immunoblotting of infected insect cell or E. coli lysates with isotype-specific antibodies (Marais and Parker, 1989) as described (Liyange et al, 1992). Sf9 or Sf158 cells were infected with recombinant baculovirus isolates containing the specified protein kinase C isotype cDNAs (Parker et al, 1986; Coussens et al, 1986) or a non-protein kinase C-related adenovirus E1 a gene (Patel and Jones, 1990). After 3 days infected and uninfected control cells were collected by centrifugation at 600 RCF for 15 min and frozen. […]\n(§2) The assay was carried out in 0.5 mL polypropylene centrifuge tubes. […] Specific and nonspecific binding values were then determined as described (Driedger and Blumberg, 1980b). […]"}, "protein kinase C μ": {"target": "T2, protein kinase C μ (Homo sapiens, UniProt Q15139)", "T2 construct": "Successful full-length expression of each isotype was confirmed by immunoblotting; made in house; host or cells: Sf9 or Sf158 insect cells (baculovirus)", "T2 sequence (Q15139 1-912)": "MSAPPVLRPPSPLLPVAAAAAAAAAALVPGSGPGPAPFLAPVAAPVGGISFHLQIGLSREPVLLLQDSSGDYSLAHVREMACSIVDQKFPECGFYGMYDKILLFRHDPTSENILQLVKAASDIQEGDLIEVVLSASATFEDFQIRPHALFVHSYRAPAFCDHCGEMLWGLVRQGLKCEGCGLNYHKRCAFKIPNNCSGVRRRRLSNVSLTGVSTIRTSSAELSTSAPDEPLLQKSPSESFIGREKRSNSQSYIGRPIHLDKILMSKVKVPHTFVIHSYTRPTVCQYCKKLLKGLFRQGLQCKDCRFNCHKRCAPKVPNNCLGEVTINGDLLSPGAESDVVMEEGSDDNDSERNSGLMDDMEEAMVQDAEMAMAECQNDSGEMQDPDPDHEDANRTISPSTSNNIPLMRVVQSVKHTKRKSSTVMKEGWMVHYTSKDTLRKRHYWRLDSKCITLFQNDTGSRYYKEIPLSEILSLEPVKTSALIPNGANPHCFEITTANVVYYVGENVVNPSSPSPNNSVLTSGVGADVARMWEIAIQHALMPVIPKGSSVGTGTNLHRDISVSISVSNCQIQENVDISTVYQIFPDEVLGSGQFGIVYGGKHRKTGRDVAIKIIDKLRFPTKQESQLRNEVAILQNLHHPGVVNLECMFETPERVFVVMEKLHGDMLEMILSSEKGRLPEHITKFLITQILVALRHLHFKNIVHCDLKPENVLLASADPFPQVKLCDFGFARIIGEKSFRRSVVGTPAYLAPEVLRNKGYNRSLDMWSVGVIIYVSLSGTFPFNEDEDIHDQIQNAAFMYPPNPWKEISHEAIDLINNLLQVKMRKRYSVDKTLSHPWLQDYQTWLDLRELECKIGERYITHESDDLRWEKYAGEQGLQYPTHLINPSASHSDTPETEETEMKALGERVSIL", "test": "[3H]PDBu receptor binding assay, protein kinase C μ", "excerpt": "as §1, §2"}, "protein kinase C δ": {"target": "T3, protein kinase C δ (Homo sapiens, UniProt Q05655)", "T3 construct": "made in house", "T3 sequence (Q05655 whole entry)": "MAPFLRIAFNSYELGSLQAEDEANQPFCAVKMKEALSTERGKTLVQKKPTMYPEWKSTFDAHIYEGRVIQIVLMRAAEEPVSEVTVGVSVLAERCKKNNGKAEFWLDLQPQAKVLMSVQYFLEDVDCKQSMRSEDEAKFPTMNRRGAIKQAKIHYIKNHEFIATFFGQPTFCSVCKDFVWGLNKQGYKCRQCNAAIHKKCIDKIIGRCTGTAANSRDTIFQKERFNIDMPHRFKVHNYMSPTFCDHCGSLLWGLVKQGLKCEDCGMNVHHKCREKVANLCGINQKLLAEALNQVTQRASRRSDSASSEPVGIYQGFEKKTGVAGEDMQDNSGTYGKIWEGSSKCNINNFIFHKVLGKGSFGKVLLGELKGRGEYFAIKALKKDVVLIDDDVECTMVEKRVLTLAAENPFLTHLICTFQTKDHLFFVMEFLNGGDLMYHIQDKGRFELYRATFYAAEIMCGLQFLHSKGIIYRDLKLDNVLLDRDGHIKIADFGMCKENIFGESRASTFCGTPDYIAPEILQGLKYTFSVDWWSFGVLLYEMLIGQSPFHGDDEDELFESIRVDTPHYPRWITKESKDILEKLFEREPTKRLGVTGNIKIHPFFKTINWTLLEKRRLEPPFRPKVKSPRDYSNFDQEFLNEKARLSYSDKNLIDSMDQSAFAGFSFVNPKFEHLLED", "test": "[3H]PDBu receptor binding assay, protein kinase C δ"}, "protein kinase C η": {"target": "T4, protein kinase C η (Homo sapiens, UniProt P24723)", "T4 construct": "Successful full-length expression of each isotype was confirmed by immunoblotting; made in house; host or cells: Sf9 or Sf158 insect cells (baculovirus)", "T4 sequence (P24723 whole entry)": "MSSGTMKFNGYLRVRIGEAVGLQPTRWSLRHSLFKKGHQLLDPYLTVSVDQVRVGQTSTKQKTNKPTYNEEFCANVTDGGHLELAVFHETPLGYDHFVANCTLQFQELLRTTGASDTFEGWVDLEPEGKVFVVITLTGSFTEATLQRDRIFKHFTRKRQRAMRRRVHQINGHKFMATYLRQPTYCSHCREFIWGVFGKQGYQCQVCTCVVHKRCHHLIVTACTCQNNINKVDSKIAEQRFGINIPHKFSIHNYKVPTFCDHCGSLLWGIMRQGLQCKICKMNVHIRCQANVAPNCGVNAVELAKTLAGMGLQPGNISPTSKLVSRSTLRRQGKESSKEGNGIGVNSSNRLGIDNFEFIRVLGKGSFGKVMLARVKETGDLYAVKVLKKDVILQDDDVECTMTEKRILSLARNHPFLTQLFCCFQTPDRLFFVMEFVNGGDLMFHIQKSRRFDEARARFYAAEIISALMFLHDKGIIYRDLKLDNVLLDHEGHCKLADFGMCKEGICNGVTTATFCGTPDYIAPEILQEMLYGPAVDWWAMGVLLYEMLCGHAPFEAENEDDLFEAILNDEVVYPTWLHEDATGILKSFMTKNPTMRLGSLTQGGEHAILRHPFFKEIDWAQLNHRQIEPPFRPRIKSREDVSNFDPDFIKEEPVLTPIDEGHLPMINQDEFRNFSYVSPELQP", "test": "[3H]PDBu receptor binding assay, protein kinase C η", "excerpt": "as §1, §2"}, "human protein kinase Cθ": {"target": "T5, human protein kinase Cθ (Homo sapiens, UniProt Q04759)", "T5 construct": "Successful full-length expression of each isotype was confirmed by immunoblotting; FLAG (from vector pFlag-Mac); made in house; host or cells: E. coli strain DH5", "T5 sequence (Q04759 whole entry)": "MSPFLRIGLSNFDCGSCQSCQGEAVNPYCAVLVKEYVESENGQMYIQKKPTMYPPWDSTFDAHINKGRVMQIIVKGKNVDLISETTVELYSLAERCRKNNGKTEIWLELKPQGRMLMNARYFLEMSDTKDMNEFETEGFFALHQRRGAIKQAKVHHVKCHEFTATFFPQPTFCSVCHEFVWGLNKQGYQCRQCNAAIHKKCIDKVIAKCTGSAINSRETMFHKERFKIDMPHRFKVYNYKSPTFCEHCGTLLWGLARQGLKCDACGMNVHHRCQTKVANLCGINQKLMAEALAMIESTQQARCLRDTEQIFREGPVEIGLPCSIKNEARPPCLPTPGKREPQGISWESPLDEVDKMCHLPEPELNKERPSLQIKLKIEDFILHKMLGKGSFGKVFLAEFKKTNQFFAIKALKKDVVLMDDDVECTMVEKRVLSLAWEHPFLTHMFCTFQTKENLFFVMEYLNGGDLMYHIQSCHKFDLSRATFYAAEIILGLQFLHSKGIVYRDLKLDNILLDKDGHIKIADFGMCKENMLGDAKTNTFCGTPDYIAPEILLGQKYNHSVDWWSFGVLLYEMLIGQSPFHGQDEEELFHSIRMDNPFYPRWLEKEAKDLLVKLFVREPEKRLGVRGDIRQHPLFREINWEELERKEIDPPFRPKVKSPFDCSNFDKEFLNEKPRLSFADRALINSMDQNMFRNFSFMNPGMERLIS", "test": "[3H]PDBu receptor binding assay, protein kinase C θ", "excerpt": "as §1, §2"}, "protein kinase C ε": {"target": "T6, protein kinase C ε (Homo sapiens, UniProt Q02156)", "T6 construct": "Successful full-length expression of each isotype was confirmed by immunoblotting; made in house; host or cells: Sf9 or Sf158 insect cells (baculovirus)", "T6 sequence (Q02156 1-737)": "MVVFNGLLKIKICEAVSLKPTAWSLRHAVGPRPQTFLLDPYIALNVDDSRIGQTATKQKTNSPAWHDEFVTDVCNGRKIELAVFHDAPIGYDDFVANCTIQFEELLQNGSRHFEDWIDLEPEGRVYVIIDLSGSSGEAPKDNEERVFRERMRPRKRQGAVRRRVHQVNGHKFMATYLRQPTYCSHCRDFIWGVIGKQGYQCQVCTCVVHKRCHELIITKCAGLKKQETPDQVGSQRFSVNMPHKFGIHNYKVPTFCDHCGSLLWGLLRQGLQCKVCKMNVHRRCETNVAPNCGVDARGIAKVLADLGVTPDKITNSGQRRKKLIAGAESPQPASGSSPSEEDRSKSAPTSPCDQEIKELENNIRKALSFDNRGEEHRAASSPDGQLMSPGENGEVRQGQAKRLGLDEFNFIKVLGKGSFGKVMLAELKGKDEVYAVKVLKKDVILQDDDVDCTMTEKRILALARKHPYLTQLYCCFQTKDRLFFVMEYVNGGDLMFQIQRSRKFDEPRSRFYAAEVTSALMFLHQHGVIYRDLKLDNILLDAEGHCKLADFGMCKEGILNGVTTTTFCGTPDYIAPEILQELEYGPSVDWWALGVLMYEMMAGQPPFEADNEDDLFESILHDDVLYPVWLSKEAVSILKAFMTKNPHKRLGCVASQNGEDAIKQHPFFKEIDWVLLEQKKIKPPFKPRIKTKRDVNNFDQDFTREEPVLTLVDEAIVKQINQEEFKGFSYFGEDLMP", "test": "[3H]PDBu receptor binding assay, protein kinase C ε", "excerpt": "as §1, §2"}, "protein kinase Cα": {"target": "T7, protein kinase Cα (Bos taurus, UniProt P04409)", "T7 construct": "Successful full-length expression of each isotype was confirmed by immunoblotting; made in house; host or cells: Sf9 or Sf158 insect cells (baculovirus)", "test": "[3H]PDBu receptor binding assay, protein kinase C α", "excerpt": "as §1, §2"}}, "data": [{"compound": "CCCCOC[C@@H]1Cc2c[nH]c3cccc(c23)N(C)[C@@H](C(C)C)C(=O)N1", "note": "[(−)-14-O-butylindolactam V]", "values": [{"measurement": "Induction of Epstein-Barr virus early antigen", "setting": "Raji cells", "value": "no induction of the Epstein-Barr virus early antigen in Raji cells could be detected"}]}, {"compound": "COC[C@@H]1Cc2c[nH]c3cccc(c23)N(C)[C@@H](C(C)C)C(=O)N1", "note": "[(−)-14-O-methylindolactam V, 14-O-methyl-(9S,12S)-indolactam V]", "values": [{"measurement": "Induction of Epstein-Barr virus early antigen", "setting": "Raji cells", "value": "no induction of the Epstein-Barr virus early antigen in Raji cells could be detected"}, {"measurement": "Inhibition of binding of [3H]PMA to a protein kinase C preparation", "setting": "[1]", "value": "did not measurably inhibit"}]}, {"compound": "CCCCCCOC[C@@H]1Cc2c[nH]c3cccc(c23)N(C)[C@@H](C(C)C)C(=O)N1", "note": "[(−)-O-hexylindolactam V, 14-O-hexyl-(9S,12S)-indolactam V]", "values": [{"measurement": "Induction of Epstein-Barr virus early antigen", "setting": "Raji cells", "value": "no induction of the Epstein-Barr virus early antigen in Raji cells could be detected"}]}, {"compound": "CC(C)=CCC/C(C)=C/COC[C@@H]1Cc2cn(C/C=C(\\C)CCC=C(C)C)c3cccc(c23)N(C)[C@@H](C(C)C)C(=O)N1", "note": "[N^1,14-O-digeranyl-(9S,12S)-indolactam V, N^1,14-O-Digeranyl-(9S,12S)-indolactam V]", "values": [{"measurement": "Persistence of inhibition of PMA induced ear inflammation", "setting": "[2]; mouse ear, highest concentration (350,000 pmoles per 5 μL), observation to 48 hours", "value": "inhibition persisting for the duration of the experiment at the highest concentration"}, {"measurement": "Inhibition of phorbol 12-myristate 13-acetate induced ear inflammation/erythema", "setting": "[2]; mouse right ear, topical 5 μL acetone, 300 pmoles PMA, test compound 3,500 to 350,000 pmoles per 5 μL, observed 1 to 48 hours", "value": "Inhibition of the phorbol 12-myristate 13-acetate induced inflammation was observed at the medium and high concentrations"}, {"measurement": "Ki", "setting": "protein kinase C γ", "value": 6.5, "unit": "µM"}, {"measurement": "Ki", "setting": "protein kinase C μ", "value": 500, "unit": "nM"}, {"measurement": "Ki", "setting": "protein kinase C δ", "value": 900, "unit": "nM"}, {"measurement": "Ki", "setting": "protein kinase C η", "value": 500, "unit": "nM"}, {"measurement": "Ki", "setting": "human protein kinase Cθ", "value": 900, "unit": "nM"}, {"measurement": "Ki", "setting": "protein kinase C ε", "value": 300, "unit": "nM"}, {"measurement": "Ki", "setting": "protein kinase Cα", "value": 5.9, "unit": "µM"}]}, {"compound": "(−)-indolactam V", "values": [{"measurement": "Induction of Epstein-Barr virus early antigen", "setting": "Raji cells", "value": "very active"}, {"measurement": "Inhibition of binding of [3H]PMA to a protein kinase C preparation", "setting": "[1]", "value": "very active"}]}]}
